The structures appear in SMILES notation.

The IC50 is the point on the concentration scale where inhibition reaches its midpoint. A lower IC50 goes with inhibition by little substance.

The target in the experiment is T1, human CPT1A (Homo sapiens, UniProt P50416).
T1 construct: made in house; host or cells: Saccharomyces cerevisiae (pESC-trp) or cultured mammalian cells (pCDNA3.1); mitochondrial extract
T1 sequence (P50416 1-773): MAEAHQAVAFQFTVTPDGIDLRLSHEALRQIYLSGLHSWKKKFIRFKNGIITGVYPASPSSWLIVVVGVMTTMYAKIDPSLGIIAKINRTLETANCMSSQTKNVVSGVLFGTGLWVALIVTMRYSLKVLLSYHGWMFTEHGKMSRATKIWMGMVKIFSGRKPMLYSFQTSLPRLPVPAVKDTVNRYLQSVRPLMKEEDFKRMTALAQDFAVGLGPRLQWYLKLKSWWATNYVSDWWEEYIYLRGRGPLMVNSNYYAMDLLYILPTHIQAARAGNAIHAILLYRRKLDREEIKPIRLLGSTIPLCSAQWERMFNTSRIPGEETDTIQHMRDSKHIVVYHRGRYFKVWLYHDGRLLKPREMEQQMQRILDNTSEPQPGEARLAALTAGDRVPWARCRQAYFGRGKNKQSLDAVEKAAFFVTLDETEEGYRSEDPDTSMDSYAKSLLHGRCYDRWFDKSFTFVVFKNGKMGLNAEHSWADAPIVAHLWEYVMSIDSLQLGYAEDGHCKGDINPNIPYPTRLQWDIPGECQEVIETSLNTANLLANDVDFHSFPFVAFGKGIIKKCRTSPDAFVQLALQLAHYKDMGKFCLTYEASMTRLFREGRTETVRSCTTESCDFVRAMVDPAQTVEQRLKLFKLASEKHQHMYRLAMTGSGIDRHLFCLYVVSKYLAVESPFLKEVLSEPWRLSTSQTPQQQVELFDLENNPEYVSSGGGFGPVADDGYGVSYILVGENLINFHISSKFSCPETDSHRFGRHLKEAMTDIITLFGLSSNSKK
Briefly: Human CPT1A LC/MS assay. Format: biochemical. As to conditions: human CPT1A LC/MS assay, dose response format. From the text:
Nucleotide sequences encoding human CPT1 enzymes were individually cloned into the yeast expression vector pESC-trp at the Cla1 (5′ terminus) and Pac1 (3′ terminus) restriction sites by PCR amplification of the open reading frame using oligonucleotide primers designed to encode the wild-type CPT1 protein sequence. Standard molecular biology techniques were used to transform and express the CPT1 proteins in the yeast Saccharomyces cerevisiae. The yeast cells were lysed by enzymatic degradation of the cell wall by Zymolase, and the mitochondria were isolated by standard biochemical techniques. The integrity of the isolated mitochondria was monitored by determining the activity of succinate dehydrogenase in the mitochondrial preparations. The mitochondrial extracts were stored at −80° C. in buffer containing 10 mM HEPES pH 7.4 and 250 mM sucrose.
Human CPT1 (A, B, C) genes were additionally cloned into the pCDNA3.1 vector individually for expression in cultured mammalian cells. Cells expressing the exogenous CPT1A were identified and grown under standard conditions. Mammalian cells were harvested, and mitochondrial extracts prepared using standard biochemical methods. The mitochondrial extracts were stored at −80° C. in buffer containing 10 mM HEPES pH 7.4 and 250 mM sucrose.
Assays were performed in 96-well plate format. Each 100 μL reaction contained 40 mM KCl, 50 mM TrisHCl pH 7.5, and 250 mM mannitol (Assay Buffer), and 1.6 μg protein of an extract, 20 μM palmitoyl-CoA, 50 μM L-carnitine, and 10 ug/mL BSA. Reactions were incubated at room temperature and stopped after 10 minutes by extraction with 200 μL of water saturated n-butanol containing myristoyl carnitine (500 nM) as an internal standard. The samples were thoroughly mixed, and the phases separated by centrifugation. Samples were prepared for analysis with a 10 fold dilution of the n-butanol phase containing the reaction product palmitoyl carnitine into a 50:50 (acetonitrile:water) solvent for analysis. […] of prepared sample was separated on a Phenomenex Jupiter 5μ C4 reverse-phase column using an Agilent 1100 HPLC with a gradient from 50% acetonitrile (0.5% acetic acid) to 100% acetonitrile and quantified by detection with a Bruker Esquire 3000plus mass spectrometer. The abundance of the palmitoyl carnitine product was determined relative to the internal standard and the actual quantity of palmitoyl carnitine can be determined from a standard curve prepared using the n-butanol solution containing the internal standard.
Compounds were evaluated in two formats, a screening format, and a dose response format. The screening format was performed by adding 25 μL compound in 20% DMSO and Assay Buffer to 25 μL of extract containing […] and Assay Buffer, followed by a 10 minute incubation at room temperature. 50 μL of 40 μM palmitoyl-CoA in Assay Buffer was added to the reaction mixture, mixed and incubated for 10 minutes at room temperature. A negative control for activity was also performed where the carnitine was omitted from the reaction. A positive control for activity was also performed by omitting compound from the solution containing 20% DMSO and Assay Buffer. The reaction mixture was extracted and analyzed as described above. The inhibition by compound was determined by comparing the control relative activity to the relative activity observed in wells containing the compound. Relative activity was determined by subtracting the relative intensity (area palmitoyl carnitine/area myristoyl carnitine) observed in the negative control from the relative intensity observed in the experimental well, and dividing by the relative activity observed in the positive control.
[formula] Compound characterization by dose response format was performed using the above described assay conditions and a 16 point compound titration in 2 fold compound dilution steps. The DMSO concentration was kept constant at 20% (v/v) for all compound concentrations.
Consider `CCCCCCC(=O)C(=O)N[C@H](CC(=O)O)C[N+](C)(C)C` [Example S120, (R)-3-carboxy-N,N,N-trimethyl-2-(2-oxooctanamido)propan-1-aminium 2,2,2-trifluoroacetate], for which the IC50 lay within 1 to 10 µM.

In the case of `CCCCCCCc1ccc(NS(=O)(=O)N[C@H](CC(=O)[O-])C[N+](C)(C)C)cc1` [Example S27, (R)-3-(N-(4-heptylphenyl)sulfamoylamino)-4-(trimethylammonio)-butanoate], the IC50 is at most 1 µM.

On to `Cc1nc(-c2cnccn2)sc1C(=O)N[C@H](CC(=O)[O-])C[N+](C)(C)C` [Example S51, (R)-3-(4-methyl-2-(pyrazin-2-yl)thiazole-5-carboxamido)-4-(trimethyl-ammonio)butanoate], for which the IC50 was over 2500 µM.

The compound `CCCCCCCCc1cccc(N(C)S(=O)(=O)N[C@H](CC(=O)O)C[N+](C)(C)C)c1` [Example S113, (R)-3-carboxy-N,N,N-trimethyl-2-(N-methyl-N-(3-octylphenyl)sulfamoylamino)propan-1-aminium 2,2,2-trifluoroacetate] registered an IC50 of 1 to 10 µM.

On to `C[N+](C)(C)C[C@@H](CC(=O)[O-])NC(=O)c1ccc(COc2cccc3ccccc23)o1` [Example S58, (R)-3-(5-((naphthalen-1-yloxy)methyl)furan-2-carboxamido)-4-(trimethyl-ammonio)butanoate], for which the IC50 lay within 1 to 10 µM.

For the compound `CCCCCCOc1cccc(OCCCCCN(C)S(=O)(=O)N[C@H](CC(=O)[O-])C[N+](C)(C)C)c1` [Example S109, (R)-3-(N-(5-(3-(hexyloxy)phenoxy)pentyl)-N-methylsulfamoylamino)-4-(trimethylammonio)butanoate], the IC50 is at most 1 µM.

The compound `C[N+](C)(C)C[C@@H](CC(=O)[O-])NC(=O)c1ccc(CSCc2ccccc2)o1` [Example S56, (R)-3-(5-(benzylthiomethyl)furan-2-carboxamido)-4-(trimethylammonio)-butanoate] had an IC50 of 1 to 10 µM.

For the compound `C[N+](C)(C)C[C@@H](CC(=O)[O-])NC(=O)c1ccc(CN2CCOCC2)o1` [Example S59, (R)-3-(5-(morpholinomethyl)furan-2-carboxamido)-4-(trimethylammonio)-butanoate], the IC50 was 1000 to 2500 µM.

`CCCCCCCC#Cc1ccc(NS(=O)(=O)N[C@H](CC(=O)[O-])C[N+](C)(C)C)cc1` [Example S104, (R)-3-(N-(4-(non-1-ynyl)phenyl)sulfamoylamino)-4-(trimethylammonio) butanoate] displayed an IC50 of 1 to 10 µM.

For the compound `CCCc1ccc(OCc2ccc(C(=O)N[C@H](CC(=O)[O-])C[N+](C)(C)C)o2)c(OC)c1` [Example S55, (R)-3-(5-((2-methoxy-4-propylphenoxy)methyl)furan-2-carboxamido)-4-(trimethylammonio)butanoate], the IC50 is 10 to 100 µM.

`C[N+](C)(C)C[C@@H](CC(=O)O)NC(=O)c1ccc(-c2cccs2)s1` [Example S44, (R)-3-(2,2′-bithiophene-5-carboxamido)-4-(trimethylammonio)butanoate] registered an IC50 of 100 to 1000 µM.

Take `Cc1nc(-c2ccccc2)sc1NC(=O)N[C@H](CC(=O)[O-])C[N+](C)(C)C` [Example S9, (R)-3-(3-(4-methyl-2-phenylthiazol-5-yl)ureido)-4-(trimethylammonio)-butanoate]: the IC50 was 1000 to 2500 µM.

The compound `Cc1ccc(CCc2ccc(S(=O)(=O)N[C@H](CC(=O)O)C[N+](C)(C)C)s2)cc1` [Example S81, (R)-3-carboxy-N,N,N-trimethyl-2-(5-(4-methylphenethyl)thiophene-2-sulfonamido)propan-1-aminium 2,2,2-trifluoroacetate] displayed an IC50 of 1 to 10 µM.

In turn, `CCCCCCCCc1ccc(NS(=O)(=O)N[C@H](CC(=O)[O-])C[N+](C)(C)C)cc1` [Example S30, (R)-3-(N-(4-octylphenyl)sulfamoylamino)-4-(trimethylammonio)butanoate] gave an IC50 of at most 1 µM.

`CCCCCCc1ccc(CCc2ccc(C(=O)N[C@H](CC(=O)O)C[N+](C)(C)C)o2)s1` [Example S119, (R)-3-(5-(2-(5-hexylthiophen-2-yl)ethyl)furan-2-carboxamido)-4-(trimethylammonio)butanoate] yielded an IC50 of at most 1 µM.

On to `CCCCCc1ccc(C#Cc2ccc(S(=O)(=O)N[C@H](CC(=O)O)C[N+](C)(C)C)s2)cc1` [Example S82, (R)-3-carboxy-N,N,N-trimethyl-2-(5-((4-pentylphenyl)-ethynyl)thiophene-2-sulfonamido)propan-1-aminium 2,2,2-trifluoroacetate], for which the IC50 fell in the range of 1 to 10 µM.

As to `C[N+](C)(C)C[C@@H](CC(=O)[O-])NC(=O)Nc1ccccc1-c1ccccc1` [Example S101, (R)-2-(3-biphenyl-2-ylureido)-3-carboxy-N,N,N-trimethylpropan-1-aminium], the IC50 was in the range of 1000 to 2500 µM.

Take `Cn1nc(C(F)(F)F)cc1-c1ccc(S(=O)(=O)N[C@H](CC(=O)O)C[N+](C)(C)C)s1` [Example S72, (R)-3-carboxy-N,N,N-trimethyl-2-(5-(1-methyl-3-(trifluoromethyl)-1H-pyrazol-5-yl)thiophene-2-sulfonamido)propan-1-aminium 2,2,2-trifluoroacetate]: the IC50 was in the range of 100 to 1000 µM.

For the compound `CCCCCCCCCCCCN(c1ccccc1)S(=O)(=O)N[C@H](CC(=O)[O-])C[N+](C)(C)C` [Example S32, (R)-3-(N-dodecyl-N-phenylsulfamoylamino)-4-(trimethylammonio)-butanoate], the IC50 fell in the range of 10 to 100 µM.

In turn, `CCCCCc1ccc(NS(=O)(=O)N[C@H](CC(=O)O)C[N+](C)(C)C)cc1` [Example S91, (R)-3-(N-(4-pentylphenyl)sulfamoylamino)-4-(trimethylammonio)butanoate] had an IC50 of at most 1 µM.

The compound `CCCCCCOc1cccc(C#Cc2ccc(C(=O)N[C@H](CC(=O)[O-])C[N+](C)(C)C)o2)c1` [Example S122, (R)-3-(5-((3-(hexyloxy)phenyl)ethynyl)furan-2-carboxamido)-4-(trimethylammonio)butanoate] had an IC50 of 1 to 10 µM.

`COc1ncc(C#Cc2ccc(C(=O)N[C@H](CC(=O)O)C[N+](C)(C)C)o2)cn1` [Example S117]: the IC50 is 100 to 1000 µM.

As for `CCCCCc1ccc(C#Cc2ccc(C(=O)N[C@H](CC(=O)O)C[N+](C)(C)C)s2)cc1` [Example S96, (R)-3-carboxy-N,N,N-trimethyl-2-(5-((4-pentylphenyl)ethynyl)-thiophene-2-carboxamido)propan-1-aminium 2,2,2-trifluoroacetate], the half-inhibitory concentration (IC50) is at most 1 µM.

For `CCCCC#Cc1ccc(C(=O)N[C@H](CC(=O)[O-])C[N+](C)(C)C)o1` [Example S4, (R)-3-(5-(hex-1-ynyl)furan-2-carboxamido)-4-(trimethylammonio)butanoate], the IC50 is 10 to 100 µM.

For the origin of these results see patent US8410150B2, “Inhibitors of carnitine palmitoyltransferase and treating cancer” (University Health Network, priority 2007, dated 2013).
